Test results from US20100166789A1, “PROTEINS FOR USE IN DIAGNOSING AND TREATING INFECTION AND DISEASE” (The Regents of the University of Colorado, priority 2008, published 2010).
No end group written: not given here. *: point of attachment. Biotin = O=C1N[C@H]2[C@H](CS[C@H]2CCCCC(=O)*)N1

Columns and labels:
[1] = system: cell surface bound CLIP on Raji and Daudi cells; test: Competition of synthetic peptides with cell surface CLIP (Fitc anti-human CLIP); assay type: cell-based; conditions: biotinylated peptides
Excerpt: Based on a computational model comparing the peptide content of TNP mixture and identifying those peptides that would have the likeliest ability to compete for the peptide/antigen binding site for MHC class II (human HLA-DR, DP, and DQ), several peptide candidates were synthesized and examined for activity. The purpose of the study was to determine if synthetic peptides can compete for binding with CLIP peptides as measured with either Fitc anti-human CLIP antibody or, comparatively in the case of biotinylated peptides, with Streptavidin.
Cell Culture Conditions: The Raji and Daudi cell lines were purchased from American Type Culture Collection, were thawed, and grown in RPMI 1640 medium supplemented with standard supplements, including 10% fetal calf serum, gentamycin, penicillin, streptomycin, sodium pyruvate, HEPES buffer, 1-glutamine, and 2-ME.
Protocol: Cells were plated into a 12 well plate with 3 mls total volume containing approximately 1.5×10^6/well for Daudi cells and 3.0×10^6/well for Raji cells. Treatment groups included no treatment as control; MKN 3 and MKN 5 at 50 microMolar final concentration based on the reported molarity of the synthesized compounds.
The cells were incubated at 37° C. in an atmosphere containing 5% CO2 and approximately 92% humidity. The cells were incubated for 4 and 24 hours. At each time point, the cells from that experimental time were harvested and stained for flow cytometric analysis of cell surface expression of CLIP (MHC Class II invariant peptide, human) by using the commercially available (Becton/Dickinson/PHarmingen) anti-human CLIP Fitc. Catalogue #555981 versus Streptavidin.
Harvested cells were stained using standard staining procedure that called for a 1:100 dilution of Fitc-anti-human CLIP or isotype control versus 1:200 dilution of the commercially prepared Streptavidin. Following staining on ice for 25 minutes, cells were washed with PBS/FCS and resuspended in 100 microliters and added to staining tubes containing 400 microliters of PBS. Samples were acquired and analyzed on a Coulter Excel Flow Cytometer.
In the Histogram analyses of FIGS. 4-6 the Y axis represents cell number of the 5000 live cells versus the X axis which is a reflection of relative Fitc fluorescence versus Streptavidin-PE (eBioscience, Cat. #12-4317) that will bind with high affinity to cell-bound biotinylated peptides. The distance between the histogram from the isotype control staining versus the histogram reflecting the specific stain and is a measure of level of cell surface CLIP or the biotinylated peptide when stained with Streptavidin on a population of live Raji or Daudi cells as indicated.

[2] = biological target: gp41 HIV-1 envelope protein (gp41 fragment) of Example 14 (HIV-1); test: native gel electrophoresis, quantitative analysis
[3] = system: cell surface CLIP on Raji or Daudi cells; conditions: 24 and 48 hours; cited from earlier work
[4] = system: cell surface CD74 on Raji or Daudi cells; conditions: 24 and 48 hours; cited from earlier work

SGG GKA LVQ NDT LLQ VKG (Biotin-SGGGKALVQNDTLLQVKG) [TNP1]
Cell surface bound CLIP (Fitc-Anti-CLIP) ([1]; 4 hours): small decreases
Cell surface bound CLIP (Fitc-Anti-CLIP) ([1]; 24 hours): significant decreases

thymus nuclear protein (TNP) extract from calf thymus
binding stoichiometry (TNP to gp41) (gp41 per 1 TNP (ratio 1:0.8)) [2]: 0.8

SGG GSK MRM ATP LLM QAL Y [MKN1]
Cell surface CLIP levels [3]: alters
Cell surface CD74 levels [4]: alters

FRIMAVLAS [SGG GAN SGF RIM AVL ASG GQY, unmodified form is MKN.4]
Cell surface bound CLIP (Fitc-Anti-CLIP) ([1]; 4 hours): small decreases
Cell surface bound CLIP (Fitc-Anti-CLIP) ([1]; 24 hours): significant decreases
